For one experiment, the target named is Flt4_h (Homo sapiens, UniProt P35916). The experiment in a line: SelectScreen kinase assay. It is filed as biochemical.
Another experiment deals with T1, ZIPK_h (Homo sapiens, UniProt O43293).
T1 construct: purchased Life Technologies (Invitrogen) SelectScreen, Z'-LYTE / Adapta
The experiment in a line: SelectScreen kinase assay. The following applies: KM ATP, read-out: % control. It is filed as biochemical.

In experiment [1] the test system is rat collagen-induced arthritis model. The following applies: 10 or 30 mg/kg b.i.d.; cited from earlier work.

Values joined by “and” are separate entries in the source; they are usually repeats but may differ in a detail not shown here. Equal values may be shown once.

Sequence of Flt4_h (P35916 25-1363): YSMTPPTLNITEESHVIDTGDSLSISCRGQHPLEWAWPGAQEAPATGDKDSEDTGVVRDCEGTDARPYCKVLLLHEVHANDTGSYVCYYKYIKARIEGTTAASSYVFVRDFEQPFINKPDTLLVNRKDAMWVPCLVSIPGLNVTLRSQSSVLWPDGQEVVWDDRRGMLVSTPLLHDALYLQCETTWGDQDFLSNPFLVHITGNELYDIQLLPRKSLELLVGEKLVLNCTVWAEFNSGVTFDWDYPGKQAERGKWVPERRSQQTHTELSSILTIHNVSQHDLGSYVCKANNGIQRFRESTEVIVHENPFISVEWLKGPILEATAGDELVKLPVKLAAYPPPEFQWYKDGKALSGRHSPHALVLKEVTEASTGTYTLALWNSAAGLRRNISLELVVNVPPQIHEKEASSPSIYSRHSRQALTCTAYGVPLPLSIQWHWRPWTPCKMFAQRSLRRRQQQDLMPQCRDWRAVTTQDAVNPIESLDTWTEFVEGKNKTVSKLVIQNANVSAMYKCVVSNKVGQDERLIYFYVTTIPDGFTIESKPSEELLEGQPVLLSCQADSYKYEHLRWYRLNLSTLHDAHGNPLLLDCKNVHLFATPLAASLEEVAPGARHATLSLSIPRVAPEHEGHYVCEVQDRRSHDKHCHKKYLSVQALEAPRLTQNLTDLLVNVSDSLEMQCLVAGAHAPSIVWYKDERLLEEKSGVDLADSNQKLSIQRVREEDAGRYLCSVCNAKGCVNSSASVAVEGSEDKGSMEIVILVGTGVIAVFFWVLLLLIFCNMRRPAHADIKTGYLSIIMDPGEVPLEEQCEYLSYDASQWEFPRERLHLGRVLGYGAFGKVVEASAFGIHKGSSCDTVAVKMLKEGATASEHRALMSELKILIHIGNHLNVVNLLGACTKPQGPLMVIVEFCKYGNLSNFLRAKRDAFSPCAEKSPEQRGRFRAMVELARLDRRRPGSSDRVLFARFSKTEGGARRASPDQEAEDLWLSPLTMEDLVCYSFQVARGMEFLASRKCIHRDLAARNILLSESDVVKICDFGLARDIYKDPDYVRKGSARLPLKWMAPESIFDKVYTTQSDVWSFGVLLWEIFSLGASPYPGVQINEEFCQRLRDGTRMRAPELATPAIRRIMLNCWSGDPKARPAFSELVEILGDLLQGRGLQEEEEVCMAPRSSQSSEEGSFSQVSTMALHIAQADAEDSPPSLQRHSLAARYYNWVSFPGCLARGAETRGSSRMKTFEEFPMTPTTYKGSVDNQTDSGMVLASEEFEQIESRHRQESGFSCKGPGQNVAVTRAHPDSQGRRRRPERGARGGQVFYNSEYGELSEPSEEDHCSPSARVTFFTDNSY
T1 sequence (O43293 whole entry): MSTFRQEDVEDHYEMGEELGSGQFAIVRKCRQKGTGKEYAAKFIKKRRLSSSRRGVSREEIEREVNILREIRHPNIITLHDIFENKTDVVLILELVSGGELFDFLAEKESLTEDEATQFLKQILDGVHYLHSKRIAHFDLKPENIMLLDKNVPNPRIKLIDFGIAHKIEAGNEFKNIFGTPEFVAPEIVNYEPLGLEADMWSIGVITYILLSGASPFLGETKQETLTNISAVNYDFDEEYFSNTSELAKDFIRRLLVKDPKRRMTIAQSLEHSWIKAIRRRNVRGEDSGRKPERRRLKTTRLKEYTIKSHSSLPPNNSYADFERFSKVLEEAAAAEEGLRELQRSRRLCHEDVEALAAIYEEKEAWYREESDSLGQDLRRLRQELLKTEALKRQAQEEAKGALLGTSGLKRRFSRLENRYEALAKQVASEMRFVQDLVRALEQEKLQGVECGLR

In the case of `c1cc(CC2CCOCC2)n2nc(Nc3ccc4c(NC5CCOCC5)n[nH]c4c3)nc2c1` [CC-509, [3-(2H-3,4,5,6-tetrahydropyran-4-ylamino)(1H-indazol-6-yl)][5-(2H-3,4,5,6-tetrahydropyran-4-ylmethyl)(2H-1,2,4-triazolo[1,5-a]pyridin-2-yl)]amine], the remaining activity at 3 µM on Flt4_h (3 µM, KM ATP, read-out: % control) amounted to 1%; on ZIPK_h it was 96%. Moreover, the IC50 on Flt4_h (10-point dose-response, commercial vendor) was 50 nM and 53.9 nM.
Regarding `COc1cc(Nc2ncc(F)c(Nc3ccc4c(n3)NC(=O)C(C)(C)O4)n2)cc(OC)c1OC` [R406, reference compound], in experiment [1], the “clinical paw score in rat CIA” value was “significantly reduced”.

(Values after article PMC4710522, “A Novel Triazolopyridine-Based Spleen Tyrosine Kinase Inhibitor That Arrests Joint Inflammation” (PLoS ONE, 2016).)
